Data from ChEMBL document CHEMBL3217743, “Reduction of acyl glucuronidation in a series of acidic 11-hydroxysteroid dehydrogenase type 1 (11-HSD1) inhibitors: the discovery of AZD6925” (Medchemcomm, 2012).
The source made the active and inactive calls. The rule behind the calls is not given here.

Assays:
CYP3A4 = CYP3A4 (Homo sapiens, UniProt P08684); assay: Inhibition of CYP3A4 (unknown origin) at 10 uM relative to control; assay type: ADME
[1] = Half life in rat at 1 to 3 mg/kg, po; assay type: ADME, organism-based; set-up: dose 1-3 mg/kg, route oral; settings: in vivo
[2] = target: T1, 11-beta-hydroxysteroid dehydrogenase 1 (Homo sapiens, UniProt P28845); assay: Inhibition of 11beta-HSD1 in human adipocytes assessed as conversion of [3H]-cortisone to [3H]-cortisol by scintillation counting analysis; assay type: cell-based
T1 sequence (P28845 whole entry): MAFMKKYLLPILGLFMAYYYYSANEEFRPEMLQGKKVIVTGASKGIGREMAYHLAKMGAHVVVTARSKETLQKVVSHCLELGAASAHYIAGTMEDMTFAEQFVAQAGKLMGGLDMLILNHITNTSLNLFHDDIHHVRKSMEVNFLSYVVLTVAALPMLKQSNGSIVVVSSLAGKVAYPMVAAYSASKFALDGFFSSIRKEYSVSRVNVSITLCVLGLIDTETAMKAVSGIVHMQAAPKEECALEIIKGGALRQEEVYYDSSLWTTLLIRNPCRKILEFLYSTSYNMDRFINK

[3] = Inhibition of N-terminal 6-His-tagged dog full length 11beta-HSD1 assessed as conversion of cortisone to cortisol after 25 mins by HTRF assay; set-up: species or system Canis lupus familiaris
[4] = target: 11-beta-hydroxysteroid dehydrogenase 1 (Rattus norvegicus, UniProt P16232); assay: Inhibition of N-terminal 6-His-tagged rat full length 11beta-HSD1 assessed as conversion of cortisone to cortisol after 25 mins by HTRF assay
Chain of 11-beta-hydroxysteroid dehydrogenase 1 (Rattus norvegicus, UniProt P16232) (P16232 whole entry): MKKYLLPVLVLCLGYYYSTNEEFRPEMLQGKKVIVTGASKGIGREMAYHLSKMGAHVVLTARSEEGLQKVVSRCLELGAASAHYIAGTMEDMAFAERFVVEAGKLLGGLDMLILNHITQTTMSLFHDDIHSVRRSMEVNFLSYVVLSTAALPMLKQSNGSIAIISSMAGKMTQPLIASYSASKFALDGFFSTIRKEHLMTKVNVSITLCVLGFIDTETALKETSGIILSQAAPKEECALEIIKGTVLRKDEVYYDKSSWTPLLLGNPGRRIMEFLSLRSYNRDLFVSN

[5] = Drug metabolism in human hepatocytes assessed as compound remaining by LC-MS/MS analysis; assay type: ADME, cell-based, Hepatocyte
[6] = Half life in dog at 1 to 3 mg/kg, iv; assay type: ADME, organism-based, Canis lupus familiaris; set-up: dose 1-3 mg/kg, route intravenous; settings: in vivo
[7] = Plasma clearance in rat at 1 to 3 mg/kg; assay type: ADME, organism-based; set-up: dose 1-3 mg/kg
Salmonella typhimurium = assay: Genotoxicity in Salmonella typhimurium by Ames test; assay type: toxicity, organism-based; settings: salmonella enterica subsp. enterica serovar typhimurium
[8] = Drug excretion in bile duct cannulated rat urine assessed as compound remaining by HPLC analysis; assay type: ADME, tissue-based; settings: read-out: Stability
[9] = Half life in mouse at 1 to 3 mg/kg, iv; assay type: ADME, organism-based; set-up: dose 1-3 mg/kg, route intravenous; settings: in vivo
Mus musculus = assay: Ex vivo inhibition of 11beta-HSD1-mediated conversion of [3H]-cortisone to [3H]-cortisol in C57Bl6J mouse liver at 30 mg/kg, po by scintillation counting analysis; assay type: functional, organism-based; set-up: dose 30 mg/kg
CYP2C9 = CYP2C9 (Homo sapiens, UniProt P11712); assay: Inhibition of CYP2C9 (unknown origin) at 10 uM relative to control; assay type: ADME
Chain of CYP2C9 (P11712 whole entry): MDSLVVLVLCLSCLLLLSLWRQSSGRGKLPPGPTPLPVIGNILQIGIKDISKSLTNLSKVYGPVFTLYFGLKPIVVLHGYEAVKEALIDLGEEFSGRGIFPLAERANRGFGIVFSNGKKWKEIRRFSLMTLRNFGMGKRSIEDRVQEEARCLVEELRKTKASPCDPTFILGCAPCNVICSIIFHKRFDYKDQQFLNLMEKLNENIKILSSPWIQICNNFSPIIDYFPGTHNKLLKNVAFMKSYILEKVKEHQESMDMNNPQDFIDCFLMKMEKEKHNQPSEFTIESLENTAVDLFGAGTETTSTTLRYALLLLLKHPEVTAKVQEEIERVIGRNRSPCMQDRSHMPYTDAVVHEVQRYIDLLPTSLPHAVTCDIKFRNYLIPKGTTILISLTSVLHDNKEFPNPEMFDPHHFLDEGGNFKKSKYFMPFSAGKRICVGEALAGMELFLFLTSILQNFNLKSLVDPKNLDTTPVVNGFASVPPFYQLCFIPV

[10] = target: T1, 11-beta-hydroxysteroid dehydrogenase 1
Description: Inhibition of N-terminal 6-His-tagged human full length 11beta-HSD1 assessed as conversion of cortisone to cortisol after 25 mins by HTRF assay

L5178Y = assay: Mutagenicity in mouse L5178Y cells by mouse lymphoma assay; assay type: toxicity, cell-based
[11] = Drug metabolism in dog hepatocytes assessed as compound remaining by LC-MS/MS analysis; assay type: ADME, cell-based, Canis lupus familiaris, Hepatocyte
[12] = target: T2, Glucocorticoid receptor (Homo sapiens) (UniProt P04150); assay: Activity at glucocorticoid receptor (unknown origin)
T2 sequence (whole entry): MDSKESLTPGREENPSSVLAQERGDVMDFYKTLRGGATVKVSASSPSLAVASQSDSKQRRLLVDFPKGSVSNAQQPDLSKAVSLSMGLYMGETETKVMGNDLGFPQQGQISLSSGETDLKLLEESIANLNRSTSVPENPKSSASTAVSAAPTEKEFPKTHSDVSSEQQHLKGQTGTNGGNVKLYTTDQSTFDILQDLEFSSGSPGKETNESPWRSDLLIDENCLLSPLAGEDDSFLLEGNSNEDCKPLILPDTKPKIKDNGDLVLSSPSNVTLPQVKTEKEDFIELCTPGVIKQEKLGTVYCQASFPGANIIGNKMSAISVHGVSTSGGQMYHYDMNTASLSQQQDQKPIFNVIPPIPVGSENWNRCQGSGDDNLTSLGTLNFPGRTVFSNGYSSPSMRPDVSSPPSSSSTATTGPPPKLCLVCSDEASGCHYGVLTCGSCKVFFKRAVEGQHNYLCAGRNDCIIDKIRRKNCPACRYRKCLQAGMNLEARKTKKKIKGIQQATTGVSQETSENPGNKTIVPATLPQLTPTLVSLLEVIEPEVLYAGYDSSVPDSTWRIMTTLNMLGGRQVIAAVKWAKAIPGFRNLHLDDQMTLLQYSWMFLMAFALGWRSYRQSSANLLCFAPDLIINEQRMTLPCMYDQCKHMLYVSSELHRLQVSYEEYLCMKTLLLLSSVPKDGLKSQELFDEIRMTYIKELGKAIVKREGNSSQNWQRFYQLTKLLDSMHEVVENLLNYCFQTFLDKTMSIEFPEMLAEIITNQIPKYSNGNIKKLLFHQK

[13] = Fraction unbound in human plasma by equilibrium dialysis technique; assay type: ADME, cell-free
[14] = Apparent permeability from apical to basolateral side in MDCK cells at 10 uM; assay type: ADME, cell-based, Canis lupus familiaris; settings: dog
[15] = Clearance in rat hepatocytes measured per 10^6 cells; assay type: ADME, cell-based, Hepatocyte; settings: read-out: CLH
[16] = Volume of distribution at steady state in rat at 1 to 3 mg/kg; assay type: ADME, organism-based; set-up: dose 1-3 mg/kg; settings: in vivo, read-out: Vdss
Phosphodiesterase 4 = Phosphodiesterase 4 (Homo sapiens, UniProt P27815+Q08499+Q07343+Q08493); assay: Inhibition of PDE4 (unknown origin); assay type: protein assay
[17] = target: T3, Mineralocorticoid receptor (Homo sapiens) (UniProt P08235); assay: Activity at mineralocorticoid receptor (unknown origin)
T3 sequence (whole entry): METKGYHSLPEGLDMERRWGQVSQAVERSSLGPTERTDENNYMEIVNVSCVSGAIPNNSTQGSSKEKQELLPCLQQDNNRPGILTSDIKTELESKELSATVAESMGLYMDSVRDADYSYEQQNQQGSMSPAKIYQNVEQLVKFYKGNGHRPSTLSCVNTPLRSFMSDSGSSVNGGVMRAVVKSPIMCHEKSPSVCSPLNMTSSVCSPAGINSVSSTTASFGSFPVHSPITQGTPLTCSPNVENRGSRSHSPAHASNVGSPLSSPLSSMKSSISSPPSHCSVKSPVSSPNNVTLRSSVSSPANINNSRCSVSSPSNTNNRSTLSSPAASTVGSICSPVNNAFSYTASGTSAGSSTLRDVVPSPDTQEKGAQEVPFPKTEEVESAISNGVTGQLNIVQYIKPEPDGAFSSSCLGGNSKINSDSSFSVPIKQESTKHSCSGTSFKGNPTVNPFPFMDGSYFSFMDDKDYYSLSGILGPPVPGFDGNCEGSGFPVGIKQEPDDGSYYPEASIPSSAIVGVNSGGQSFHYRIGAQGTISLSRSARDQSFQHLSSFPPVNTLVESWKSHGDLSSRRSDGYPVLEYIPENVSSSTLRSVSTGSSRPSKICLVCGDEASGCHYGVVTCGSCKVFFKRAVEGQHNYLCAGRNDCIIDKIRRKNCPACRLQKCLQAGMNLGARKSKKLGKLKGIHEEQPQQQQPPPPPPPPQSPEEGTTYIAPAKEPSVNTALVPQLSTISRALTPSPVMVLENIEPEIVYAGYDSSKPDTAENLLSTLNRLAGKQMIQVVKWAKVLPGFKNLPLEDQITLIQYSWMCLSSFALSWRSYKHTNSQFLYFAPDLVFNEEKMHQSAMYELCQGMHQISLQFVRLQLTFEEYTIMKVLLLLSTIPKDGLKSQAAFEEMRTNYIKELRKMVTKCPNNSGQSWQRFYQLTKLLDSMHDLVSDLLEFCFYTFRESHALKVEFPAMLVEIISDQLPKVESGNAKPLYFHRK

[18] = Octanol-buffer partition coefficient, log D of the compound at pH 7.4 after 30 mins by shake-flask method; assay type: physicochemical
[19] = Fraction unbound in dog plasma by equilibrium dialysis technique; assay type: ADME, cell-free, Canis lupus familiaris

Chain of CYP3A4 (P08684 whole entry): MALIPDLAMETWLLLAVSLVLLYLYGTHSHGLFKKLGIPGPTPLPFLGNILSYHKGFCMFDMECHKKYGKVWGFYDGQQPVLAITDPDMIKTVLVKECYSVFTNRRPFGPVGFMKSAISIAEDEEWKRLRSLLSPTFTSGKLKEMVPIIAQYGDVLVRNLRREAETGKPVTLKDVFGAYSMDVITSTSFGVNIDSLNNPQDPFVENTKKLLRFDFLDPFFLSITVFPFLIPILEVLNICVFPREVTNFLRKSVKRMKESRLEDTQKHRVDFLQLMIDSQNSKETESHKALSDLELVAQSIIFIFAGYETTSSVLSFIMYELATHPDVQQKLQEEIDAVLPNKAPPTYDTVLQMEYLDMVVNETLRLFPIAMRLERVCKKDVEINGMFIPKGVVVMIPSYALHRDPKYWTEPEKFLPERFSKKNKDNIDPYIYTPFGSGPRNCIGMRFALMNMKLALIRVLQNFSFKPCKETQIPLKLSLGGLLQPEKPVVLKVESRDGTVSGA

CSc1nc(N2C[C@@H]3[C@H](C2)[C@H]3C(=O)O)ccc1C(=O)NC12CC3CC(CC(C3)C1)C2
inhibition at 10 µM (CYP3A4): < 25% | half-life [1]: 4.3 h | IC50 [2]: 4 nM | IC50 [3]: 120 nM | IC50 [4]: 82 nM | Stability [5]: 94% | half-life [6]: 15 h | clearance [7]: 6 mL/min/kg | Activity (Salmonella typhimurium): Non-toxic | dose excreted [8]: 7.6% | half-life [9]: 2.5 h | inhibition (Mus musculus): Active | inhibition at 10 µM (CYP2C9): < 25% | IC50 [10]: 6 nM | Activity (L5178Y): Non-toxic | Stability [11]: 92% | Activity [12]: inactive | fraction unbound [13]: 0.011 | Papp A→B at 10 µM [14]: 21 ×10⁻⁶ cm/s | hepatocyte CLint [15]: 6 µL/min/1e6 cells | Vd [16]: 0.9 L/kg | IC50 (Phosphodiesterase 4): 30000 nM | Activity [17]: inactive | logD at 0.5 h [18]: 2.1 | fraction unbound [19]: 0.015
